Source: patent US7964613B2 (Asahi Kasei Pharma Corporation, priority 2007, dated 2011)
Where a name gives a salt, the structure may show the parent alone.

Key:
intraocular pressure [1] = assay: Rabbit intraocular pressure reduction enhancing action, Test Example 7-2 (combination use with timolol maleate); assay type: in vivo, Japanese white rabbit; details: Table 6; 19-1 compound 0.01 weight % aqueous solution 50 μL, Timoptol 50 μL; difference relative to control group at 1, 2, 4 hours; 12 rabbits
Method: As a test compound, the 19-1 compound was dissolved in physiological saline, and the solution was neutralized by addition of sodium hydroxide (pH 7.0 to 8.0) to prepare a 0.01 weight % aqueous solution (19-1 compound aqueous solution). As a drug for combination use, timolol maleate (trade name: Timoptol, Santen Pharmaceutical) was used as an adrenergic receptor β blocker, as the marketed formulation as it was.
A Japanese white rabbit having a body weight of about 2 kg was placed in a positioner and naturalized for one week before the experiment. An opthalmologic local anesthesant (Benoxil) was administered to both eyes, and then intraocular pressure before instillation was measured by using a tonometer (Classic 30, Solan). […] The intraocular pressure thereafter was measured for each group 1, 2 and 4 hours after the second administration of the test compound, and the difference of the measured values at each measurement time for the each group and the control group was considered an intraocular pressure reduction value of each group. The largest difference of the intraocular pressure values relative to the control group among those of the measured values of the measurement times was considered the maximum intraocular pressure reduction value (max ? IOP) of each drug group.

[2] = system: myosin regulatory light chain of mesenteric artery; details: cited from earlier work
intraocular pressure [3] = assay: Rabbit intraocular pressure reduction enhancing action, Test Example 7-1 (combination use); assay type: in vivo, Japanese white rabbit; details: Table 5; 19-1 compound 0.01 weight % aqueous solution 50 μL, Rescula 50 μL; left-right eye difference at 2, 4, 6 hours; six rabbits
Method: However, the effect is not limited to the 19-1 compound, and the ophthalmic solution concentration of the 19-1 compound is not limited to those used in this test example. Moreover, as for the test compound used for combination use, similar effect can be obtained also with the compounds of the present invention represented with the example numbers mentioned in Test Example 3.
As a test compound, the 19-1 compound was dissolved in physiological saline, and the solution was neutralized by addition of sodium hydroxide (pH 7.0 to 8.0) to prepare a 0.01 weight % aqueous solution (19-1 compound aqueous solution). As the drugs for combination use, isopropyl unoprostone (trade name: Rescula, Santen Pharmaceutical) was used as a prostaglandin-related drug, and brinzolamide hydrochloride (trade name: Azopt, Alcon Japan) was used as […], as the marketed formulations as they were.
A Japanese white rabbit having a body weight of about 2 kg was placed in a positioner and naturalized for one week before the experiment. An opthalmologic local anesthesant (Benoxil) was administered to both eyes, and then intraocular pressure before instillation was measured by using a tonometer (Classic 30, Solan). A test aqueous solution or the drug for combination use was administered to the left eye, and the right eye was not treated (control eye). The test groups consisted of (1) control group, (2) group instilled only with the 19-1 compound aqueous solution (single drug group 1), (3) group instilled only with the drug for combination use (single drug group 2), and (4) group instilled with the drug for combination use and the 19-1 compound aqueous solution (combination use group), and six rabbits were used for each group. As for the rabbits of these groups, 50 μL of physiological saline was first instilled to the control group, single drug group 1, and single drug group 2, and the drug for combination use was first instilled in the same volume to the combination use group. […] The intraocular pressure thereafter was measured for each group 2, 4 and 6 hours after the second administration of the test compound, and the difference of the measured values for the left and right eyes at each measurement time was considered an intraocular pressure reduction value of each group. The largest difference of the intraocular pressure values for the left and right eyes among those of the measured values of the measurement times was considered the maximum intraocular pressure reduction value (max ? IOP) of each drug group.

For `CC(C)(C)NC[C@H](O)COc1nsnc1N1CCOCC1` [timolol maleate, reference compound], the “Max IOP (maximum intraocular pressure reduction value)” value (intraocular pressure [1]) was 1.9 mmHg.
For `CC1CNCCN1S(=O)(=O)c1cccc2cnccc12` (stereo not drawn) [Example H-7, 1-(5-isoquinolinesulfonyl)-2-methylpiperazine], the “inhibition of phosphorylation of myosin regulatory light chain” value [2] is listed as “inhibits the phosphorylation of myosin regulatory light chain of mesenteric artery”.
In the case of `CCCCCCCC(=O)CC[C@@H]1[C@@H](C/C=C\CCCC(=O)OC(C)C)[C@@H](O)C[C@H]1O` [isopropyl unoprostone, reference compound], the “Max IOP (maximum intraocular pressure reduction value)” value (intraocular pressure [3]) is reported as 4.4 mmHg.
